Data taken from patent US20240309014A1, “MACROCYCLIC COMPOUNDS AND USES THEREOF” (President and Fellows of Harvard College, priority 2017, published 2024).

Columns and labels:
[1] = test system: human duodenal cell line HuTu 80 xenograft; assay: HuTu 80 xenograft model as monotherapy (FIG. 23); format: in vivo, nude mice
Experimental: A human duodenal cell line HuTu 80, which had been cultured in a EMEM containing 10% FBS, and penicillin-streptomycin, was adjusted to a concentration of 3×10^7 cells/mL in PBS to prepare a cell suspension. The cell suspension was inoculated in a volume of 100 μL into a subcutaneous part of a right flank of nude mice, 7 weeks of ages (CAnN.Cg-Foxnlnu/CrlCrlj, female, Charles River Laboratories Japan Inc.). Seven days after cell inoculation (Day 1), the shortest diameter and the longest diameter of a tumor in each mouse were measured by using an electronic digital caliper (Digimatic™ caliper, Mitutoyo Corporation), so as to calculate the volume of the tumor in accordance with the following calculation formulae: […]
On the basis of the volumes of tumors obtained on Day 1, the mice were grouped such that averages of the tumor volumes were substantially equal among the groups. The experiment was conducted on groups each consisting of six mice. Compound (1) was dissolved in DMSO and a solution was stored in the freezer before use. Immediately before the administration, the stock solution was diluted with saline. The test compound in saline was intravenously once-weekly administered at 45, 90, or 180 μg/kg for 2 weeks (on Day 1 and Day 8).

[2] = test system: human bladder carcinoma cell line RT4; assay: Bladder carcinoma cell line growth inhibition assay, RT4; format: cell-based; conditions: 72 h, 3 days incubation, CellTiter-Glo 2.0
Experimental: In this assay, the growth inhibitory activity of Compound (1) in human bladder carcinoma cell lines RT4, RT112/84, and UM-UC-3 was measured. RT4 and RT112/84 cells were maintained in a RPMI-1640 (FUJIFILM Wako Pure Chemical Corporation, 189-02025) medium containing 10% fetal bovine serum (FBS: SIGMA Life Science, 172012-500ML), and penicillin and streptomycin (FUJIFILM Wako Pure Chemical Corporation, 168-23191) in a 5% CO2 incubator (37° C.). UM-UC-3 cells were maintained in an E-MEM (FUJIFILM Wako Pure Chemical Corporation, 051-07615) medium containing 10% FBS, 1 mM Sodium Pyruvate (FUJIFILM Wako Pure Chemical Corporation, 190-14881), and penicillin and streptomycin in a 5% CO2 incubator (37° C.). To each well of a 96 well plate (Coming, 3904), 90 μL of each cell suspension adjusted to a concentration of 5.55×10^3 cells/mL (RT4 or UM-UC-3) or 3.33×10^4 cells/mL (RT112/84) with the culture medium was added, and the cells were incubated overnight in a 5% CO2 incubator (37° C.). On the next day, 10 μL of Compound (1) in three-fold dilution series suspended in the culture medium was added to each well, and the resultant was incubated for 3 days in a 5% CO2incubator (37° C.). Then, cell viability was determined by CellTiter-Glo® 2.0 Assay (Promega Corporation, G9243) with ARVO-X4 Multimode Plate Reader (Perkin-Elmer, Wellesley, MA). […]

[3] = test system: α-SMA-positive CAFs in FaDu tumor; assay: Effect on α-SMA-positive CAFs in the FaDu subcutaneous model (FIG. 14); format: in vivo, nude mice
Experimental: A human squamous cell carcinoma of the head and neck (SCCHN) cell line FaDu, which had been cultured in an RPMI-1640 medium containing 10% FBS, and penicillin-streptomycin (culture medium), was adjusted to a concentration of 5×10^7 cells/mL with culture medium to prepare a cell suspension. The cell suspension was inoculated in a volume of 100 μL into a subcutaneous part of a right flank of nude mice, 6 weeks of ages (CAnN.Cg-Foxnlnu/CrlCrlj, female, Charles River Laboratories Japan, Inc.). Ten days after cell inoculation, the mice were grouped such that averages of the tumor volumes were substantially equal among the groups. The experiment was conducted on groups each consisting of 5 mice. Each test compound was dissolved in DMSO and a solution was stored in the freezer before use. Immediately before the administration, the stock solution was diluted with saline. The test compound in saline was intravenously administered at 20 μg/kg, 60 μg/kg, or 180 μg/kg. […] The area of α-SMA-positive region in the whole tumor was quantified by counting the α-SMA-positive objects using inform 2 software (PerkinElmer Inc.) Area of the tumor region was measured by assessing the hematoxylin-staining area using inform 2 software (PerkinElmer Inc.). […] A suppression rate of the α-SMA- positive area of the test compound-dosing group was calculated with the below formula: […]

SMILES: C=C1C[C@@H]2CC[C@@]34C[C@H]5O[C@H]6[C@@H](O3)[C@H]3O[C@H](CC[C@@H]3O[C@H]6C5O4)CC(=O)O[C@@H]3[C@@H](C)[C@@H]4O[C@@H]5C[C@]6(C[C@@H]7O[C@]8(C[C@H](C)[C@@H]9O[C@H](CN)[C@H](O)C[C@@H]9O8)C[C@H](C)[C@@H]7O6)O[C@@H]5C[C@@H]4O[C@H]3C[C@H]3O[C@@H](CC[C@@H]1O2)C[C@@H](C)C3=C (stereo in doubt) [Compound (1)]
- Tumor Regression (%) ([1]; 0.18 mg/kg i.v. Day 1 and Day 8): 99%
- antitumor effect ([1]; 180 μg/kg i.v. Day 1 and Day 8): tumor regression
- antitumor effect ([1]; 45 and 90 μg/kg i.v. Day 1 and Day 8): tumor growth delay
- IC50 [2]: 0.11 nM
- α-SMA positive area ([3]; single i.v. dose of 180 μg/kg, Day 6): significantly reduced the α-SMA positive area
- α-SMA positive area ([3]; single i.v. dose of 60 and 180 μg/kg, Day 3): significantly reduced the α-SMA positive area
